ChEMBL document CHEMBL3046559, “Sterile oat (Avena sterilis L.) cross-resistance profile to ACCase-inhibiting herbicides in Greece” (2012)

What was measured:
Type in all cases: functional
Avena sterilis [1] = experiment: Herbicidal activity against Avena sterilis accession P13S assessed as induction of weed mortality
Avena sterilis [2] = experiment: Herbicidal activity against Avena sterilis accession P08 assessed as weed survival at 1 times field recommended herbicide dose
Avena sterilis [3] = experiment: Herbicidal activity against Avena sterilis accession P20 assessed as induction of weed mortality
Avena sterilis [4] = experiment: Herbicidal activity against Avena sterilis accession P15 assessed as weed survival at 4 times field recommended herbicide dose
Avena sterilis [5] = experiment: Herbicidal activity against Avena sterilis accession P12 assessed as weed survival at 4 times field recommended herbicide dose
Avena sterilis [6] = experiment: Herbicidal activity against Avena sterilis accession P11 assessed as weed survival at 8 times field recommended herbicide dose
Avena sterilis [7] = experiment: Herbicidal activity against Avena sterilis accession P16 assessed as induction of weed mortality
Avena sterilis [8] = experiment: Herbicidal activity against Avena sterilis accession P20 assessed as weed survival at 8 times field recommended herbicide dose
Avena sterilis [9] = experiment: Herbicidal activity against Avena sterilis accession P11 assessed as weed survival at 4 times field recommended herbicide dose
Avena sterilis [10] = experiment: Herbicidal activity against Avena sterilis accession P01 assessed as weed survival at 8 times field recommended herbicide dose
Avena sterilis [11] = experiment: Herbicidal activity against Avena sterilis accession P02 assessed as induction of weed mortality
Avena sterilis [12] = experiment: Herbicidal activity against Avena sterilis accession P15 assessed as weed survival at 8 times field recommended herbicide dose
Avena sterilis [13] = experiment: Herbicidal activity against Avena sterilis accession P10S assessed as weed survival at 1/16 times field recommended herbicide dose
Avena sterilis [14] = experiment: Herbicidal activity against Avena sterilis accession P13S assessed as weed survival at 1/8 times field recommended herbicide dose
Avena sterilis [15] = experiment: Herbicidal activity against Avena sterilis accession P11 assessed as weed survival at 32 times field recommended herbicide dose
Avena sterilis [16] = experiment: Herbicidal activity against Avena sterilis accession P12 assessed as weed survival at 16 times field recommended herbicide dose
Avena sterilis [17] = experiment: Herbicidal activity against Avena sterilis accession P14 assessed as weed survival at 1 times field recommended herbicide dose
Avena sterilis [18] = experiment: Herbicidal activity against Avena sterilis accession P08 assessed as induction of weed mortality
Avena sterilis [19] = experiment: Herbicidal activity against Avena sterilis accession P14 assessed as weed survival at 4 times field recommended herbicide dose
Avena sterilis [20] = experiment: Herbicidal activity against Avena sterilis accession P07 assessed as induction of weed mortality
Avena sterilis [21] = experiment: Herbicidal activity against Avena sterilis accession P08 assessed as weed survival at 16 times field recommended herbicide dose
Avena sterilis [22] = experiment: Herbicidal activity against Avena sterilis accession P16 assessed as weed survival at 1 times field recommended herbicide dose
Avena sterilis [23] = experiment: Herbicidal activity against Avena sterilis accession P11 assessed as weed survival at 1 times field recommended herbicide dose
Avena sterilis [24] = experiment: Herbicidal activity against Avena sterilis accession P01 assessed as weed survival at 4 times field recommended herbicide dose
Avena sterilis [25] = experiment: Herbicidal activity against Avena sterilis accession P16 assessed as weed survival at 8 times field recommended herbicide dose
Avena sterilis [26] = experiment: Herbicidal activity against Avena sterilis accession P20 assessed as weed survival at 4 times field recommended herbicide dose
Avena sterilis [27] = experiment: Herbicidal activity against Avena sterilis accession P16 assessed as weed survival at 32 times field recommended herbicide dose
Avena sterilis [28] = experiment: Herbicidal activity against Avena sterilis accession P09 assessed as weed survival at 32 times field recommended herbicide dose
Avena sterilis [29] = experiment: Herbicidal activity against Avena sterilis accession P13S assessed as weed survival at 1/4 times field recommended herbicide dose
Avena sterilis [30] = experiment: Herbicidal activity against Avena sterilis accession P09 assessed as weed survival at 4 times field recommended herbicide dose
Avena sterilis [31] = experiment: Herbicidal activity against Avena sterilis accession P03 assessed as weed survival at 4 times field recommended herbicide dose
Avena sterilis [32] = experiment: Herbicidal activity against Avena sterilis accession P13S assessed as weed survival at 1 times field recommended herbicide dose
Avena sterilis [33] = experiment: Herbicidal activity against Avena sterilis accession P07 assessed as weed survival at 4 times field recommended herbicide dose
Avena sterilis [34] = experiment: Herbicidal activity against Avena sterilis accession P13S assessed as weed survival at 1/32 times field recommended herbicide dose
Avena sterilis [35] = experiment: Herbicidal activity against Avena sterilis accession P03 assessed as weed survival at 32 times field recommended herbicide dose
Avena sterilis [36] = experiment: Herbicidal activity against Avena sterilis accession P17 assessed as weed survival at 32 times field recommended herbicide dose
Avena sterilis [37] = experiment: Herbicidal activity against Avena sterilis accession P02 assessed as weed survival at 16 times field recommended herbicide dose
Avena sterilis [38] = experiment: Herbicidal activity against Avena sterilis accession P06S assessed as weed survival at 1 times field recommended herbicide dose
Avena sterilis [39] = experiment: Herbicidal activity against Avena sterilis accession P01 assessed as weed survival at 32 times field recommended herbicide dose
Avena sterilis [40] = experiment: Herbicidal activity against Avena sterilis accession P10S assessed as weed survival at 1/4 times field recommended herbicide dose
Avena sterilis [41] = experiment: Herbicidal activity against Avena sterilis accession P02 assessed as weed survival at 4 times field recommended herbicide dose
Avena sterilis [42] = experiment: Herbicidal activity against Avena sterilis accession P03 assessed as weed survival at 1 times field recommended herbicide dose
Avena sterilis [43] = experiment: Herbicidal activity against Avena sterilis accession P08 assessed as weed survival at 8 times field recommended herbicide dose
Avena sterilis [44] = experiment: Herbicidal activity against Avena sterilis accession P10S assessed as weed survival at 1/8 times field recommended herbicide dose
Avena sterilis [45] = experiment: Herbicidal activity against Avena sterilis accession P04 assessed as weed survival at 16 times field recommended herbicide dose
Avena sterilis [46] = experiment: Herbicidal activity against Avena sterilis accession P11 assessed as induction of weed mortality
Avena sterilis [47] = experiment: Herbicidal activity against Avena sterilis accession P14 assessed as weed survival at 8 times field recommended herbicide dose
Avena sterilis [48] = experiment: Herbicidal activity against Avena sterilis accession P01 assessed as induction of weed mortality
Avena sterilis [49] = experiment: Herbicidal activity against Avena sterilis accession P02 assessed as weed survival at 8 times field recommended herbicide dose
Avena sterilis [50] = experiment: Herbicidal activity against Avena sterilis accession P05 assessed as weed survival at 4 times field recommended herbicide dose
Avena sterilis [51] = experiment: Herbicidal activity against Avena sterilis accession P21S assessed as weed survival at 1/32 times field recommended herbicide dose
Avena sterilis [52] = experiment: Herbicidal activity against Avena sterilis accession P20 assessed as weed survival at 1 times field recommended herbicide dose
Avena sterilis [53] = experiment: Herbicidal activity against Avena sterilis accession P22 assessed as weed survival at 4 times field recommended herbicide dose
Avena sterilis [54] = experiment: Herbicidal activity against Avena sterilis accession P22 assessed as weed survival at 8 times field recommended herbicide dose
Avena sterilis [55] = experiment: Herbicidal activity against Avena sterilis accession P19S assessed as weed survival at 1/32 times field recommended herbicide dose
Avena sterilis [56] = experiment: Herbicidal activity against Avena sterilis accession P20 assessed as weed survival at 32 times field recommended herbicide dose
Avena sterilis [57] = experiment: Herbicidal activity against Avena sterilis accession P09 assessed as induction of weed mortality
Avena sterilis [58] = experiment: Herbicidal activity against Avena sterilis accession P22 assessed as weed survival at 1 times field recommended herbicide dose

## CCc1cc(C)cc(CC)c1-c1c(OC(=O)C(C)(C)C)n2n(c1=O)CCOCC2 [PINOXADEN]
Avena sterilis [1]
  GR50: 4.1 gAi/ha
Avena sterilis [2]
  Survival: 20%
Avena sterilis [3]
  GR50: 42 gAi/ha
Avena sterilis [4]
  Survival: 0%
Avena sterilis [5]
  Survival: 0%
Avena sterilis [6]
  Survival: 0%
Avena sterilis [7]
  GR50: <40 gAi/ha
Avena sterilis [8]
  Survival: 0%
Avena sterilis [9]
  Survival: 0%
Avena sterilis [10]
  Survival: 0%
Avena sterilis [11]
  GR50: <40 gAi/ha
Avena sterilis [12]
  Survival: 0%
Avena sterilis [13]
  Survival: 97%
Avena sterilis [14]
  Survival: 20%
Avena sterilis [15]
  Survival: 0%
Avena sterilis [16]
  Survival: 0%
Avena sterilis [17]
  Survival: 0%
Avena sterilis [18]
  GR50: <40 gAi/ha
Avena sterilis [19]
  Survival: 0%
Avena sterilis [20]
  GR50: <40 gAi/ha
Avena sterilis [21]
  Survival: 0%
Avena sterilis [22]
  Survival: 0%
Avena sterilis [23]
  Survival: 0%
Avena sterilis [24]
  Survival: 17%
Avena sterilis [25]
  Survival: 0%
Avena sterilis [26]
  Survival: 0%
Avena sterilis [27]
  Survival: 0%
Avena sterilis [28]
  Survival: 0%
Avena sterilis [29]
  Survival: 3%
Avena sterilis [30]
  Survival: 0%
Avena sterilis [31]
  Survival: 3%
Avena sterilis [32]
  Survival: 0%
Avena sterilis [33]
  Survival: 0%
Avena sterilis [34]
  Survival: 100%
Avena sterilis [35]
  Survival: 0%
Avena sterilis [36]
  Survival: 0%
Avena sterilis [37]
  Survival: 0%
Avena sterilis [38]
  Survival: 0%
Avena sterilis [39]
  Survival: 0%
Avena sterilis [40]
  Survival: 0%
Avena sterilis [41]
  Survival: 0%
Avena sterilis [42]
  Survival: 20%
Avena sterilis [43]
  Survival: 0%
Avena sterilis [44]
  Survival: 20%
Avena sterilis [45]
  Survival: 0%
Avena sterilis [46]
  GR50: <40 gAi/ha
Avena sterilis [47]
  Survival: 0%
Avena sterilis [48]
  GR50: <40 gAi/ha
Avena sterilis [49]
  Survival: 0%
Avena sterilis [50]
  Survival: 0%
Avena sterilis [51]
  Survival: 100%
Avena sterilis [52]
  Survival: 63%
Avena sterilis [53]
  Survival: 0%
Avena sterilis [54]
  Survival: 0%
Avena sterilis [55]
  Survival: 100%
Avena sterilis [56]
  Survival: 0%
Avena sterilis [57]
  GR50: <40 gAi/ha
Avena sterilis [58]
  Survival: 20%

## CCO/N=C(\CC)C1=C(O)CC(c2c(C)cc(C)cc2C)CC1=O (stereo unspecified) [TRALKOXYDIM]
Avena sterilis [1]
  GR50: 34 gAi/ha
Avena sterilis [2]
  Survival: 63%
Avena sterilis [3]
  GR50: 2916 gAi/ha
Avena sterilis [4]
  Survival: 20%
Avena sterilis [5]
  Survival: 0%
Avena sterilis [6]
  Survival: 0%
Avena sterilis [7]
  GR50: 907 gAi/ha
Avena sterilis [8]
  Survival: 40%
Avena sterilis [9]
  Survival: 0%
Avena sterilis [10]
  Survival: 20%
Avena sterilis [11]
  GR50: 1073 gAi/ha
Avena sterilis [12]
  Survival: 20%
Avena sterilis [13]
  Survival: 40%
Avena sterilis [14]
  Survival: 23%
Avena sterilis [15]
  Survival: 0%
Avena sterilis [16]
  Survival: 0%
Avena sterilis [17]
  Survival: 0%
Avena sterilis [18]
  GR50: 781 gAi/ha
Avena sterilis [19]
  Survival: 0%
Avena sterilis [20]
  GR50: <400 gAi/ha
Avena sterilis [21]
  Survival: 0%
Avena sterilis [22]
  Survival: 77%
Avena sterilis [23]
  Survival: 17%
Avena sterilis [24]
  Survival: 43%
Avena sterilis [25]
  Survival: 17%
Avena sterilis [26]
  Survival: 80%
Avena sterilis [27]
  Survival: 0%
Avena sterilis [28]
  Survival: 0%
Avena sterilis [29]
  Survival: 20%
Avena sterilis [30]
  Survival: 20%
Avena sterilis [31]
  Survival: 60%
Avena sterilis [32]
  Survival: 0%
Avena sterilis [33]
  Survival: 20%
Avena sterilis [34]
  Survival: 93%
Avena sterilis [35]
  Survival: 17%
Avena sterilis [36]
  Survival: 0%
Avena sterilis [37]
  Survival: 0%
Avena sterilis [38]
  Survival: 0%
Avena sterilis [39]
  Survival: 0%
Avena sterilis [40]
  Survival: 20%
Avena sterilis [41]
  Survival: 40%
Avena sterilis [42]
  Survival: 77%
Avena sterilis [43]
  Survival: 17%
Avena sterilis [44]
  Survival: 30%
Avena sterilis [45]
  Survival: 60%
Avena sterilis [46]
  GR50: <400 gAi/ha
Avena sterilis [47]
  Survival: 0%
Avena sterilis [48]
  GR50: 766 gAi/ha
Avena sterilis [49]
  Survival: 20%
Avena sterilis [50]
  Survival: 40%
Avena sterilis [51]
  Survival: 100%
Avena sterilis [52]
  Survival: 97%
Avena sterilis [53]
  Survival: 40%
Avena sterilis [54]
  Survival: 20%
Avena sterilis [55]
  Survival: 100%
Avena sterilis [56]
  Survival: 20%
Avena sterilis [57]
  GR50: 532 gAi/ha
Avena sterilis [58]
  Survival: 57%
